Data published in US9049865B2, “Use of fungicidal active substances for controlling mycoses on plants of the palm family” (Bayer Intellectual Property GmbH, priority 2010, dated 2015).
In brackets after ≈: the same amount, converted by molar mass. Several values for one entry are separate records, joined by “and”; a condition that tells them apart may be missing. Equal entries are not always repeated. Where two headings read alike, the source gives them in different places.

System: Ganoderma boninense
Assay: Microtiter plate growth test of Ganoderma boninense mycelium in potato-dextrose broth, absorption by photometer
Type: cell-based
Conditions: for EC50: Ganoderma boninense; for efficacy in controlling basal stem rot (BSR) disease, in words: verbal assessment of the EC50 data
Description: • 1. Culturing of the isolates on potato-dextrose agar (PDA) • 2. Preparation of a liquid potato-dextrose broth (PDB) as inoculum • For the development of the mycelium, 10 small pieces of the mycelium were transferred into 200 ml of the liquid potato-dextrose broth (PDB) and cultured for 7 days in a greenhouse cabinet at 26° C. • The mycelium was isolated, transferred into 200 ml of fresh liquid potato-dextrose broth supplemented with 25 mg/l enrofloxacin and comminuted using a homogenizer (5 seconds, Ultra Turrax). Thereafter this mycelial suspension was adjusted to two mycelial densities: • Inoculum A: “High mycelial density” • Homogenized mycelial suspension made up to 400 ml with PDB+enrofloxacin • Inoculum B: “Low mycelial density” • 100 ml of inoculum A made up to 400 ml with PDB+enrofloxacin • 3. Microtiter plate test: • Concentration range from 0.0-0.0064-0.032-0.16-4-20 to 100 ppm for each fungicide (active component) • Fungicide and inoculum were distributed using an automatic dispenser • 4. Evaluation (growth determination): • This is carried out every 2 days (1st evaluation after 4 days) by measuring the absorption over 13 days, using a photometer. II. Results
EC50 & (MEC50): Fungicide concentration at which the fungal growth is reduced by 50%: […]

[1] = 144 h, G. boninense, high mycelial density, after 6 days, read-out: MEC50s (mean EC50 data)
[2] = 144 h, G. boninense, low mycelial density, after 6 days, read-out: MEC50s (mean EC50 data)
[3] = 312 h, G. boninense, high mycelial density, after 13 days, read-out: MEC50s (mean EC50 data)
[4] = 312 h, G. boninense, low mycelial density, after 13 days, read-out: MEC50s (mean EC50 data)
[5] = G. boninense, high mycelial density, after 6 days, single determinations
[6] = G. boninense, low mycelial density, after 13 days, single determinations
[7] = 144 h, G. boninense, high mycelial density, after 6 days, single determinations, read-out: EC50 data
[8] = 312 h, G. boninense, low mycelial density, after 13 days, single determinations, read-out: EC50 data
[9] = G. boninense, high mycelial density, after 13 days, single determinations
[10] = 144 h, G. boninense, low mycelial density, after 6 days, single determinations, read-out: EC50 data
[11] = 312 h, G. boninense, high mycelial density, after 13 days, single determinations, read-out: EC50 data
[12] = G. boninense, low mycelial density, after 6 days, single determinations

| SMILES | EC50 [1] | EC50 [2] | EC50 [3] | EC50 [4] | EC50 data [5] | EC50 data [6] | EC50 [7] | EC50 [8] | efficacy in controlling basal stem rot (BSR) disease, in words | EC50 data [9] | EC50 [10] | EC50 [11] | EC50 data [12] | EC50 (144 h, read-out: EC50 data, G. boninense, low mycelial density, after 6 days, single determinations) | EC50 (144 h, read-out: MEC50s (mean EC50 data), G. boninense, low mycelial density, after 6 days) | EC50 (312 h, read-out: EC50 data, G. boninense, low mycelial density, after 13 days, single determinations) | EC50 (312 h, read-out: MEC50s (mean EC50 data), G. boninense, low mycelial density, after 13 days) |
| --- | --- | --- | --- | --- | --- | --- | --- | --- | --- | --- | --- | --- | --- | --- | --- | --- | --- |
| Cn1cc(C(=O)Nc2ccc(F)cc2-c2ccc(Cl)c(Cl)c2)c(C(F)F)n1 [Bixafen, N-(3′,4′-dichloro-5-fluoro-1,1′-biphenyl-2-yl)-3-(difluoromethyl)-1-methyl-1H-pyrazole-4-carboxamide] | 0.07 µg/mL (≈ 0.169 µM) | 0.027 µg/mL (≈ 0.0652 µM) | 0.096 µg/mL (≈ 0.232 µM) | 0.096 µg/mL (≈ 0.232 µM) | – | – | – | – | – | – | – | – | – | – | – | – | – |
| CC(C)(C)C(O)C(Oc1ccc(-c2ccccc2)cc1)n1cncn1 (stereo not drawn) [Bitertanol] | 0.062 µg/mL (≈ 0.184 µM) | 0.061 µg/mL (≈ 0.181 µM) | 0.054 µg/mL (≈ 0.16 µM) | 0.121 µg/mL (≈ 0.359 µM) | 0.0518 µg/mL and 0.0614 µg/mL and 0.058 µg/mL and 0.0542 µg/mL and 0.0679 µg/mL | 0.1355 µg/mL and 0.1360 µg/mL and 0.1146 µg/mL and 0.1235 µg/mL and 0.1014 µg/mL | 0.0801 µg/mL (≈ 0.237 µM) | 0.118 µg/mL (≈ 0.35 µM) | similarly effective | – | – | – | – | – | – | – | – |
| CO/N=C(/C1=NOCCO1)c1ccccc1Oc1ncnc(Oc2ccccc2Cl)c1F [Fluoxastrobin] | – | 0.036 µg/mL (≈ 0.0785 µM) | – | 0.158 µg/mL (≈ 0.344 µM) | – | – | – | – | less effective | – | – | – | – | – | – | – | – |
| CON=C(C(=O)OC)c1ccccc1CON=C(C)c1cccc(C(F)(F)F)c1 [Trifloxystrobin] | 0.006 µg/mL (≈ 0.0147 µM) | 0.006 µg/mL (≈ 0.0147 µM) | 0.01 µg/mL (≈ 0.0245 µM) | 0.02 µg/mL (≈ 0.049 µM) | – | – | 0.0064 µg/mL (≈ 0.0157 µM) | – | outstanding efficacy | 0.0119 µg/mL and 0.0081 µg/mL and 0.0115 µg/mL | 0.0064 µg/mL (≈ 0.0157 µM) | 0.0064 µg/mL (≈ 0.0157 µM) | – | – | – | – | – |
| Cc1nn(C)c(F)c1C(=O)Nc1ccccc1C(C)CC(C)C (stereo not drawn) [Penflufen, N-[2-(1,3-dimethylbutyl)phenyl]-5-fluoro-1,3-dimethyl-1H-pyrazole-4-carboxamide] | 0.008 µg/mL (≈ 0.0252 µM) | 0.006 µg/mL (≈ 0.0189 µM) | 0.022 µg/mL (≈ 0.0693 µM) | 0.015 µg/mL (≈ 0.0473 µM) | 0.0098 µg/mL and 0.0087 µg/mL | – | 0.0076 µg/mL (≈ 0.0239 µM) | – | – | – | 0.0064 µg/mL (≈ 0.0202 µM) | – | 0.0065 µg/mL (≈ 0.0205 µM) | – | – | – | – |
| CCCN(CCOc1c(Cl)cc(Cl)cc1Cl)C(=O)n1ccnc1 [Prochloraz] | – | – | – | – | – | 0.6978 µg/mL and 1.0994 µg/mL and 0.7737 µg/mL and 0.8261 µg/mL and 1.1128 µg/mL | – | – | – | – | – | – | 0.3566 µg/mL and 0.5803 µg/mL and 0.5515 µg/mL and 0.6018 µg/mL and 0.5704 µg/mL | 0.497 µg/mL (≈ 1.32 µM) | 0.519 µg/mL (≈ 1.38 µM) | 0.94 µg/mL (≈ 2.5 µM) | 0.895 µg/mL (≈ 2.38 µM) |
| CC(C)(C)C(O)(CCc1ccc(Cl)cc1)Cn1cncn1 (stereo not drawn) [Tebuconazole] | 0.006 µg/mL (≈ 0.0195 µM) | 0.006 µg/mL (≈ 0.0195 µM) | 0.011 µg/mL (≈ 0.0357 µM) | 0.007 µg/mL (≈ 0.0227 µM) | – | 0.0065 µg/mL and 0.0067 µg/mL and 0.0072 µg/mL | 0.0064 µg/mL (≈ 0.0208 µM) | 0.0086 µg/mL (≈ 0.0279 µM) | best activity | – | 0.0064 µg/mL (≈ 0.0208 µM) | – | – | – | – | – | – |
| OC(Cc1ccccc1Cl)(Cn1nc[nH]c1=S)C1(Cl)CC1 (stereo not drawn) [Prothioconazole] | 0.008 µg/mL (≈ 0.0232 µM) | 0.012 µg/mL (≈ 0.0349 µM) | 0.009 µg/mL (≈ 0.0261 µM) | 0.014 µg/mL (≈ 0.0407 µM) | 0.0069 µg/mL and 0.0087 µg/mL and 0.0117 µg/mL and 0.0073 µg/mL | – | 0.0064 µg/mL (≈ 0.0186 µM) | – | best activity | 0.0084 µg/mL and 0.0068 µg/mL | – | 0.0064 µg/mL (≈ 0.0186 µM) | – | – | – | – | – |
| CC(C)(C)C(O)C(Oc1ccc(Cl)cc1)n1cncn1 (stereo not drawn) [Triadimenol] | 0.052 µg/mL (≈ 0.176 µM) | 0.093 µg/mL (≈ 0.314 µM) | 0.06 µg/mL (≈ 0.203 µM) | 0.098 µg/mL (≈ 0.331 µM) | 0.0446 µg/mL and 0.0475 µg/mL and 0.0712 µg/mL and 0.0434 µg/mL and 0.0767 µg/mL | 0.0963 µg/mL and 0.0723 µg/mL and 0.1064 µg/mL and 0.1074 µg/mL | 0.0386 µg/mL (≈ 0.131 µM) | 0.103 µg/mL (≈ 0.349 µM) | similarly effective | – | 0.106 µg/mL (≈ 0.359 µM) | – | 0.08 µg/mL and 0.1062 µg/mL and 0.1077 µg/mL and 0.1076 µg/mL and 0.0638 µg/mL | – | – | – | – |
| O=c1c2cc(F)ccc2nc(-n2cncn2)n1-c1ccc(Cl)cc1Cl [Fluquinconazole] | 0.034 µg/mL (≈ 0.0904 µM) | 0.023 µg/mL (≈ 0.0611 µM) | 0.041 µg/mL (≈ 0.109 µM) | 0.066 µg/mL (≈ 0.175 µM) | – | 0.0532 µg/mL and 0.0915 µg/mL and 0.0656 µg/mL and 0.0577 µg/mL and 0.075 µg/mL | – | 0.0591 µg/mL (≈ 0.157 µM) | – | 0.0450 µg/mL and 0.0443 µg/mL and 0.0458 µg/mL and 0.0352 µg/mL and 0.0386 µg/mL | 0.0308 µg/mL (≈ 0.0819 µM) | 0.0393 µg/mL (≈ 0.104 µM) | 0.0178 µg/mL and 0.0228 µg/mL and 0.0239 µg/mL and 0.0224 µg/mL and 0.022 µg/mL | – | – | – | – |
